From ChEMBL document CHEMBL3507680, “University of Dundee, Gates Library screen for HepG2 cell viability”

Test: Human HepG2 cell viability assay in 384 well format
Format: toxicity, cell-based
Parameters: dose 125 nL, time 70.5 hour; concentration not given beside the values
Details: HepG2 cells, read-out: Inhibition

Compared with `O=C(NCCn1cccc1)c1c(O)cc(F)cc1F`, `CC(c1ccccc1)N(C)CC(=O)NCCC#N` (configuration not stated) is lower in cytotoxicity at 70.5 h: -6.2% for the first, -11.2% for the second.

Going from `CCn1ncc2c1C(COCC1CC1)N(Cc1nccs1)CC2` (configuration not stated) to `Cc1ncsc1CN1CCn2c(COCC3CC3)cnc2C1C` (configuration not stated), the cytotoxicity at 70.5 h falls from -0.956% to -2.63%.

Compared with `CC(C)N1CCC2(CC1)CC(c1cccnc1)C(=O)N2` (configuration not stated), `CC(C)(O)CN1CCN(C(=O)c2cccc3[nH]ncc23)CC1` is higher in cytotoxicity at 70.5 h: -10.2% for the first, -1.27% for the second.

First: Cc1ccc(-c2nc(C3CCN(C(=O)c4cnn(C)c4)CC3)no2)cn1
Second: Cc1cnc2c(c1)N(C(=O)c1ccc(=O)n(C)c1)CCO2
The cytotoxicity at 70.5 h of the first is higher: 24.5% for the first, -2.79% for the second.

First: CCN(CC1CCCO1)C(=O)Nc1cccc(Cl)c1OC (configuration not stated)
Second: CCN(Cc1ccccc1)C(=O)CN1CCOC(Cn2cncn2)C1 (configuration not stated)
The cytotoxicity at 70.5 h of the first is higher: 24.1% for the first, 5.38% for the second.

Compared with `O=C(Cn1nc2c(cc1=O)CCCC2)NC(Cc1ccccc1)C(=O)O` (configuration not stated), `O=C1CCC(C(=O)NCc2nn(-c3ccccc3)c3c2CCC3)CN1` (configuration not stated) is higher in cytotoxicity at 70.5 h: -10.7% for the first, 4.23% for the second.

Compared with `O=C(CN1C(=O)CCNC1=O)N1CCOC(c2ccc(Cl)c(Cl)c2)C1` (configuration not stated), `O=C(COc1coc(CN2CCCCC2)cc1=O)Nc1ccc(Cl)cc1` is higher in cytotoxicity at 70.5 h: -10.7% for the first, -3.76% for the second.

Compared with `CN(C)CC1(O)CCCN(C(=O)CCn2cc(Cl)cn2)C1` (configuration not stated), `CCC[C@H]1CN(Cc2ccc(N(C)C)nc2)C[C@@H]1NC(=O)CSC` is lower in cytotoxicity at 70.5 h: 26.8% for the first, -6.28% for the second.

First: Cc1noc(C(C)N2CCc3[nH]c4ccc(Cl)cc4c3C2)n1 (configuration not stated)
Second: CCc1noc(CN(CC)Cc2cc3ccc(C)cc3[nH]c2=O)n1
The cytotoxicity at 70.5 h of the first is lower: -8.97% for the first, 7.76% for the second.

Going from `COc1ccc(NC(=O)c2cccc(OC)c2OC)cc1` to `CN(C)C(=O)c1ccc(OC2CCCC2)cc1`, the cytotoxicity at 70.5 h falls from -3.77% to -7%.

Compared with `CC(C)CN(C)S(=O)(=O)c1ccc(Cl)cc1C#N`, `Cc1ccc(S(=O)(=O)N(CC(N)=O)CC(C)C)cc1C` is lower in cytotoxicity at 70.5 h: 34.3% for the first, -5.56% for the second.

Compared with `CC(C)(C)c1cc(=O)[nH]c(-c2ccccc2CN2CCCCCC2)n1`, `Cc1c[nH]c(CN2CCC3(CCCN(Cc4ccc(F)c(F)c4)C3)C2)n1` (configuration not stated) is higher in cytotoxicity at 70.5 h: -3.97% for the first, 0.269% for the second.

Compared with `CC(=O)N1CCC12CCN(Cc1ccco1)CC2`, `Cc1occc1C(=O)N1CCC2(CCC(=O)N(CC(N)=O)C2)CC1` is lower in cytotoxicity at 70.5 h: 19.9% for the first, -2.77% for the second.

Compared with `CNC(=O)Cc1noc(-c2cc3c(s2)CCC(C)(C)C3)n1`, `Cc1ccc(CN2Cc3c(C(=O)N(C)C)nn(C)c3C2)s1` is lower in cytotoxicity at 70.5 h: -3.09% for the first, -3.13% for the second.

Going from `CCOC(=O)[C@]12CCCN(Cc3nccs3)C[C@H]1CN(S(C)(=O)=O)C2` to `O=C(NCCS(=O)(=O)N1CCN(c2ncccn2)CC1)C1CC1`, the cytotoxicity at 70.5 h rises from -6.29% to 16.5%.

Compared with `CCC(NC(=O)C1CCN(S(C)(=O)=O)CC1)c1ccc(C)c(C)c1` (configuration not stated), `Cc1cc(C)n(CC2CCCN2CCCS(C)(=O)=O)n1` (configuration not stated) is lower in cytotoxicity at 70.5 h: -4.17% for the first, -7.95% for the second.

First: CN(C(=O)Cn1nnnc1C(C)(C)C)c1ccccc1
Second: CC(C)(C)CC(=O)Nc1ccccc1SCC(N)=O
The cytotoxicity at 70.5 h of the first is lower: -19.5% for the first, -3.84% for the second.

Compared with `O=C(NCCOc1ccc2c(c1)OCO2)C1CC(=O)N(CC2CC2)C1` (configuration not stated), `c1ccc(O[C@H]2CO[C@@]3(CCN(Cc4ccc5c(c4)OCO5)C3)C2)nc1` is lower in cytotoxicity at 70.5 h: 1.74% for the first, 0.478% for the second.

Going from `CC(C)(C)C(=O)NCCC(=O)NC(C)(C)c1ccc2c(c1)OCCO2` to `CCNC(=O)[C@@H]1C[C@H](N)CN1C(=O)c1cccc(CCC(C)(C)O)c1`, the cytotoxicity at 70.5 h falls from 1.98% to -5.42%.

Compared with `Cc1cc(C(F)F)nn1C(C)C(=O)NCc1nccn1C` (configuration not stated), `Cc1cc(N(C)C)nc(N2CCN(Cc3nccn3C)CC2)n1` is lower in cytotoxicity at 70.5 h: -0.123% for the first, -5.76% for the second.

Compared with `O=C(C1CCCC1)N1CCCC(c2cccc(-n3ccnc3)n2)C1` (configuration not stated), `Cc1cc(C(=O)N2CCCC(n3ccnc3)C2)c(C)n1C1CC1` (configuration not stated) is lower in cytotoxicity at 70.5 h: 16.6% for the first, 1.06% for the second.

First: CCOc1ccccc1CC(=O)N1C[C@@H](C(=O)O)[C@H](C2CC2)C1
Second: Cc1n[nH]cc1CNC(C(=O)N1CCOCC1)c1ccccc1 (configuration not stated)
The cytotoxicity at 70.5 h of the first is lower: -1.88% for the first, 15.2% for the second.

First: Cc1oc(C)c(C(=O)NCc2cccnc2)c1C
Second: Cc1ccc2nc(C)c(C)c(C(=O)N[C@H]3COC[C@@H]3N3CCCC3)c2c1
The cytotoxicity at 70.5 h of the first is lower: -14.1% for the first, -3.96% for the second.

Compared with `CC(C(=O)NCc1cccc(N2CC=CC2)c1)n1cccn1` (configuration not stated), `Nc1nc(O)cc(N2CCC(c3cc(Cc4ccccc4)n[nH]3)CC2)n1` is higher in cytotoxicity at 70.5 h: -7.35% for the first, -3.99% for the second.

First: CC1(C)[C@H](Cc2cc(CO)on2)C[C@@H]1N(CC1CC1)CC1CC1
Second: CN1CCCC1CNC(=O)CCCOc1cccc(Br)c1 (configuration not stated)
The cytotoxicity at 70.5 h of the first is lower: 5.68% for the first, 17.7% for the second.

First: CO[C@H]1C[C@@H](O)C12CCN(CCOc1ccc(Cl)cc1)CC2
Second: N#Cc1ccc(S(=O)(=O)Nc2ccc(N3CCOCC3)cn2)cc1
The cytotoxicity at 70.5 h of the first is lower: -1.42% for the first, 0.03% for the second.

Going from `Fc1cnc(N2CC[C@@H]3O[C@H](COCc4ccccn4)CC[C@@H]32)nc1` to `CCOCc1nc(N2CCOCC2)sc1C(=O)NCCCc1ccco1`, the cytotoxicity at 70.5 h rises from -3.08% to 0.741%.

Going from `CC(C)NC(=O)N1CCN(C(=O)N(C)C)CC2(CC(=O)N(C)C2)C1` (configuration not stated) to `CNC(=O)c1ccc(NC2CCN(CC(F)(F)F)C2=O)cc1Cl` (configuration not stated), the cytotoxicity at 70.5 h falls from -6.79% to -7.41%.

Work on `CCOC(=O)CCCNc1nc(C(C)(C)C)nc2c1cnn2C` yielded a cytotoxicity at 70.5 h of -3.02%.
